Reference: PMC7071059, “Targeting Receptor Tyrosine Kinase VEGFR-2 in Hepatocellular Cancer: Rational Design, Synthesis and Biological Evaluation of 1,2-Disubstituted Benzimidazoles” (Molecules, 2020)
Where two headings read alike, the source gives them in different places.

Assays:
HepG2 cell line [1] = test: In vitro cytotoxic activity, Sulfo-Rhodamine-B (SRB) assay; assay type: cell-based, human; conditions: read-out: IC50 (μM) on HepG2 Cell Line
VEGFR-2 = VEGFR-2 (Homo sapiens, UniProt P35968); test: Biochemical kinase assay (Kinase-Glo Plus luminescence)
Protocol: This assay was carried out using the VEGFR-2 kinase enzyme system or FGFR-1 kinase enzyme system and Kinase-Glo Plus luminescence kinase (Promega) kits according to the manufacturers´ protocols. This assay evaluated the activity of kinase by measuring the amount of ATP remaining in solution after a kinase reaction. The luminescent signal from the assay was related to the quantity of ATP available, which was inversely proportional to the amount of kinase activity. […] Subsequently, serial dilutions were carried out, and 5 µL of the dilution was added to a 50 µL reaction. The enzymatic reactions were performed at 30 °C for 45 minutes. The 50 µL reaction mixture contained 40 mM Tris, pH 7.4, 10 mM MgCl2, 0.1 mg/mL BSA, 1 mM DTT, 0.2 mg/ml Poly (Glu, Tyr) substrate, 10 μM ATP and protein. After the enzymatic reaction, 50 µL of Kinase-Glo Plus Luminescence kinase assay solution was added to each reaction, and the plates were incubated for 15 minutes at room temperature. The luminescence signal was measured using a Tecan–spark multimode microplate reader. The difference between luminescence intensities in the absence of Kinase (Lut) and in the presence of Kinase (Luc) was defined as 100% activity (Lut − Luc). Using a luminescence signal (Lu) in the presence of the compound, % activity was calculated as: % activity = {(Lut − Lu)/(Lut − Luc)}×100%, where Lu = the luminescence intensity in the presence of the compound.

HepG2 cell line [2] = system: HepG2 cell line; parameters: method as in PMID 28505536; conditions: earlier 2-furylbenzimidazole, comparison value; cited from earlier work
[3] = Homo sapiens, HepG2, 48 h, SRB assay, 48 h, mean of three independent experiments
[4] = SRB assay, 48 h, mean of three independent experiments

Sequence of VEGFR-2 (P35968 20-1356): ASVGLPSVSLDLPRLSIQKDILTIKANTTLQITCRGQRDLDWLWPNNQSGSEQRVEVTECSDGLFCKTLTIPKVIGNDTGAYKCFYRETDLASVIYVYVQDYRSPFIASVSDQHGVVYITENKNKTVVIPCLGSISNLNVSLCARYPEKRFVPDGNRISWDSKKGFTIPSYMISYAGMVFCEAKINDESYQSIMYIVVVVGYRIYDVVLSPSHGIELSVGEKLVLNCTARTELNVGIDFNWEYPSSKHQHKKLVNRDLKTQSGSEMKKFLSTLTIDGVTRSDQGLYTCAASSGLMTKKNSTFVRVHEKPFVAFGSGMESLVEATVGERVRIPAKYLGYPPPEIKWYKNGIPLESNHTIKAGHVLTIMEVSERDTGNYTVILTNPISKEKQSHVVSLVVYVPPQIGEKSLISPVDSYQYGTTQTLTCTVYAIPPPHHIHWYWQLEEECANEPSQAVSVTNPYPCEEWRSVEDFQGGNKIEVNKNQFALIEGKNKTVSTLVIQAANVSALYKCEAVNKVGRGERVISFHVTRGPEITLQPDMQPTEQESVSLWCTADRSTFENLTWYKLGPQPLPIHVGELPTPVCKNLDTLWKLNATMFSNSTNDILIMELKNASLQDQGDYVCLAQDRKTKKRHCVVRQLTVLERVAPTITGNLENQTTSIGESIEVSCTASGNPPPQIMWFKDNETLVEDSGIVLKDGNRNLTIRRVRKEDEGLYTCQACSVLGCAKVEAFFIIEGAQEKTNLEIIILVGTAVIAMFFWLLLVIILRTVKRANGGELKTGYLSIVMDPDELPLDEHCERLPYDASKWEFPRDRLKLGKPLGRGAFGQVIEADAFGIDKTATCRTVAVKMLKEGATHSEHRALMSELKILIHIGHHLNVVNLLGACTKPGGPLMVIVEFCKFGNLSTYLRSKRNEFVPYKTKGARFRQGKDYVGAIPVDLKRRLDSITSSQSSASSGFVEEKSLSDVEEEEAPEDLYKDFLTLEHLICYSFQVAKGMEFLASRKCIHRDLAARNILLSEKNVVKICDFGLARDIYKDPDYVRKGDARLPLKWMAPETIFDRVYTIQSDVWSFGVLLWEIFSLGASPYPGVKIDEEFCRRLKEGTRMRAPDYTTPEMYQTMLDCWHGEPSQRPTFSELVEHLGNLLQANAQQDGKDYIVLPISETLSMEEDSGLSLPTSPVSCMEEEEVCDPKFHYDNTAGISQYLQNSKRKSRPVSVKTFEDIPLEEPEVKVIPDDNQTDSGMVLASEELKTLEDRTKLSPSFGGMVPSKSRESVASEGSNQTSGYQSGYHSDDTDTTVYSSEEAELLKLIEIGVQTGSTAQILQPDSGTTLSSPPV

Q: For `CC(C)c1nc2ccccc2[nH]1` [Compound 4a, 2-Isopropyl-1H-benzo[d]imidazole], which IC50 (HepG2 cell line [1]; [3]) is on record?
A: Its IC50 is greater than 200 µM.

Q: What about the melting point of the same compound?
A: The melting point was 233 to 235 °C.

Q: With `Cc1ccc(-c2nc3ccccc3[nH]2)o1` [Compound 4b, 2-(5-Methylfuran-2-yl)-1H-benzo[d]imidazole] as the compound, how does the IC50 (HepG2 cell line [1]; [3]) read?
A: Its IC50 is 103 µM.

Q: Which IC50 (HepG2 cell line [1]; [3]) does the source give for `CC(C)c1nc2ccccc2n1CC(=O)c1ccc(C#N)cc1` [Compound 6, 4-(2-(2-Isopropyl-1H-benzo[d]imidazol-1-yl)acetyl)benzonitrile] here?
A: Its IC50 is 13.5 µM.

Q: And the melting point?
A: The melting point was 209 to 211 °C.

Q: What does the source list for `COC(=O)Cn1c(C(C)C)nc2ccccc21` [Compound 8a, Methyl 2-(2-isopropyl-1H-benzo[d]imidazol-1-yl)acetate]?
A: IC50 (HepG2 cell line [1]; [3]): > 200 µM; melting point: 93 to 95 °C

Q: Which IC50 (HepG2 cell line [1]; [3]) does the source give for `COC(=O)Cn1c(-c2ccc(C)o2)nc2ccccc21` [Compound 8b, Methyl 2-(2-(5-methylfuran-2-yl)-1H-benzo[d]imidazol-1-yl)acetate] here?
A: Its IC50 is greater than 150 µM.

Q: Which IC50 (HepG2 cell line [1]; [3]) does the source give for `CCOC(=O)Cn1c(C(C)C)nc2ccccc21` [Compound 8c, Ethyl 2-(2-isopropyl-1H-benzo[d]imidazol-1-yl)acetate] here?
A: The IC50 was greater than 200 µM.

Q: What about the melting point of the same compound?
A: Its melting point is 103 to 105 °C.

Q: With `CCOC(=O)Cn1c(-c2ccc(C)o2)nc2ccccc21` [Compound 8d] as the compound, how does the IC50 (HepG2 cell line [1]; [3]) read?
A: Its IC50 is greater than 150 µM.

Q: Which results are given for `CC(C)c1nc2ccccc2n1CC(=O)O` [Compound 9a, 2-(2-Isopropyl-1H-benzo[d]imidazol-1-yl)acetic acid]?
A: IC50 (HepG2 cell line [1]; [3]): 32.5 µM; melting point: 238 to 240 °C

Q: Which IC50 (HepG2 cell line [1]; [3]) does the source give for `CC(C)c1nc2ccccc2n1CC(=O)NN` [Compound 10a, 2-(2-Isopropyl-1H-benzo[d]imidazol-1-yl)acetohydrazide] here?
A: The IC50 was 301 µM.

Q: What about the melting point of the same compound?
A: Its melting point is 243 to 245 °C.

Q: Which IC50 (HepG2 cell line [1]; [3]) does the source give for `CC(C)c1nc2ccccc2n1CC(=O)N/N=C/c1ccccc1Cl` [Compound 13a, (E)-N′-(2-Chlorobenzylidene)-2-(2-isopropyl-1H-benzo[d]imidazol-1-yl)acetohydrazide] here?
A: The IC50 was 158 µM.

Q: And the melting point?
A: Its melting point is 211 to 213 °C.

Q: Which results are given for `CC(C)c1nc2ccccc2n1CC(=O)N/N=C/c1cccc(O)c1` [Compound 13b, (E)-N′-(3-Hydroxybenzylidene)-2-(2-isopropyl-1H-benzo[d]imidazol-1-yl)acetohydrazide]?
A: IC50 (HepG2 cell line [1]; [3]): 137 µM; melting point: 249 to 251 °C

Q: For `CC(C)c1nc2ccccc2n1CC(=O)N/N=C/c1ccc(O)cc1` [Compound 13c, (E)-N′-(4-Hydroxybenzylidene)-2-(2-isopropyl-1H-benzo[d]imidazol-1-yl)acetohydrazide], which IC50 (HepG2 cell line [1]; [3]) is on record?
A: The IC50 was 140 µM.

Q: What about the melting point of the same compound?
A: The melting point was 296 to 298 °C.

Q: For `COc1ccc(/C=N/NC(=O)Cn2c(C(C)C)nc3ccccc32)cc1` [Compound 13d, (E)-2-(2-Isopropyl-1H-benzo[d]imidazol-1-yl)-N′-(4-methoxybenzylidene)acetohydrazide], which IC50 (HepG2 cell line [1]; [3]) is on record?
A: Its IC50 is 11.9 µM.

Q: And the melting point?
A: The melting point was 190 to 192 °C.

Q: And the IC50 (VEGFR-2)?
A: Its IC50 is 0.09 ± 0.002 µM.

Q: Which results are given for `CC(C)c1nc2ccccc2n1CC(=O)N/N=C/c1ccc(N(C)C)cc1` [Compound 13e, (E)-N′-(4-(Dimethylamino)benzylidene)-2-(2-isopropyl-1H-benzo[d]imidazol-1-yl)acetohydrazide]?
A: IC50 (HepG2 cell line [1]; [3]): 87 µM; melting point: 225 to 227 °C

Q: For `COc1ccc(OC)c(/C=N/NC(=O)Cn2c(C(C)C)nc3ccccc32)c1` [Compound 13f], which IC50 (HepG2 cell line [1]; [3]) is on record?
A: Its IC50 is 11.9 to 15.6 µM.

Q: And the IC50 (HepG2 cell line [1]; [4])?
A: The IC50 was 16.7 µM.

Q: What about the melting point of the same compound?
A: The melting point was 202 to 204 °C.

Q: And the IC50 (VEGFR-2)?
A: Its IC50 is 0.4 ± 0.01 µM.

Q: For `COc1cc(/C=N/NC(=O)Cn2c(C(C)C)nc3ccccc32)ccc1O` [Compound 13g, (E)-N′-(4-Hydroxy-3-methoxybenzylidene)-2-(2-isopropyl-1H-benzo[d]imidazol-1-yl)acetohydrazide], which IC50 (HepG2 cell line [1]; [3]) is on record?
A: The IC50 was 13.9 µM.

Q: What about the melting point of the same compound?
A: The melting point was 165 to 167 °C.

Q: Which IC50 (HepG2 cell line [1]; [3]) does the source give for `Cc1ccc(/C=N/NC(=O)Cn2c(C(C)C)nc3ccccc32)o1` [Compound 13h, (E)-2-(2-Isopropyl-1H-benzo[d]imidazol-1-yl)-N′-((5-methylfuran-2-yl)methylene)acetohydrazide] here?
A: Its IC50 is 59.9 µM.

Q: For `C/C(=N\NC(=O)Cn1c(C(C)C)nc2ccccc21)c1ccccc1C` [Compound 14b, (E)-2-(2-Isopropyl-1H-benzo[d]imidazol-1-yl)-N′-(1-(o-tolyl)ethylidene)acetohydrazide], which IC50 (HepG2 cell line [1]; [3]) is on record?
A: The IC50 was 26.2 µM.

Q: And the melting point?
A: The melting point was 238 to 240 °C.

Q: With `C/C(=N\NC(=O)Cn1c(C(C)C)nc2ccccc21)c1ccc(Br)cc1` [Compound 14c, (E)-N′-(1-(4-Bromophenyl)ethylidene)-2-(2-isopropyl-1H-benzo[d]imidazol-1-yl)acetohydrazide] as the compound, how does the IC50 (HepG2 cell line [1]; [3]) read?
A: Its IC50 is 112 µM.

Q: What about the melting point of the same compound?
A: Its melting point is 215 to 217 °C.

Q: Which results are given for `C/C(=N\NC(=O)Cn1c(C(C)C)nc2ccccc21)c1ccc(Br)c([N+](=O)[O-])c1` [Compound 14d, (E)-N′-(1-(4-Bromo-3-nitrophenyl)ethylidene)-2-(2-isopropyl-1H-benzo[d]imidazol-1-yl)acetohydrazide]?
A: IC50 (HepG2 cell line [1]; [3]): 62 µM; melting point: 231 to 233 °C

Q: What does the source list for `COC(=O)COc1ccc(/C=N/NC(=O)Cn2c(C(C)C)nc3ccccc32)cc1OC` [Compound 19a, Methyl-(E)-2-(4-((2-(2-(2-isopropyl-1H-benzo[d]imidazol-1-yl)acetyl)hydrazono)methyl)-2-methoxyphenoxy)acetate]?
A: IC50 (HepG2 cell line [1]; [3]): 109 µM; melting point: 175 to 177 °C

Q: With `COC(=O)COc1ccc(/C=N/NC(=O)Cn2c(-c3ccc(C)o3)nc3ccccc32)cc1OC` [Compound 19b, Methyl-(E)-2-(2-methoxy-4-((2-(2-(2-(5-methylfuran-2-yl)-1H-benzo[d]imidazol-1-yl)acetyl)hydrazono)methyl)phenoxy)acetate] as the compound, how does the IC50 (HepG2 cell line [1]; [3]) read?
A: The IC50 was 71.7 µM.

Q: And the melting point?
A: Its melting point is 150 to 152 °C.

Q: With `CCOC(=O)COc1ccc(/C=N/NC(=O)Cn2c(C(C)C)nc3ccccc32)cc1OC` [Compound 19c, Ethyl-(E)-2-(4-((2-(2-(2-isopropyl-1H-benzo[d]imidazol-1-yl)acetyl)hydrazono)methyl)-2-methoxyphenoxy)acetate] as the compound, how does the IC50 (HepG2 cell line [1]; [3]) read?
A: Its IC50 is 133 µM.

Q: What about the melting point of the same compound?
A: Its melting point is 93 to 95 °C.

Q: With `CCOC(=O)COc1ccc(/C=N/NC(=O)Cn2c(-c3ccc(C)o3)nc3ccccc32)cc1OC` [Compound 19d, Ethyl-(E)-2-(2-methoxy-4-((2-(2-(2-(5-methylfuran-2-yl)-1H-benzo[d]imidazol-1-yl)acetyl)hydrazono)methyl)phenoxy)acetate] as the compound, how does the IC50 (HepG2 cell line [1]; [3]) read?
A: The IC50 was 114 µM.

Q: And the melting point?
A: The melting point was 136 to 138 °C.

Q: Which results are given for `COc1cc(C=O)ccc1OCCOc1ccc(/C=N/NC(=O)Cn2c(C(C)C)nc3ccccc32)cc1OC` [Compound 22a, (E)-N′-(4-(2-(4-Formyl-2-methoxyphenoxy)ethoxy)-3-methoxybenzylidene)-2-(2-isopropyl-1H-benzo[d]imidazol-1-yl)acetohydrazide]?
A: IC50 (HepG2 cell line [1]; [3]): > 100 µM; IC50 (HepG2 cell line [1]; [4]): 123 µM; melting point: 218 to 220 °C

Q: Which IC50 (HepG2 cell line [1]; [3]) does the source give for `COc1cc(C=O)ccc1OCCOc1ccc(/C=N/NC(=O)Cn2c(-c3ccc(C)o3)nc3ccccc32)cc1OC` [Compound 22b, (E)-N′-(4-(2-(4-Formyl-2-methoxyphenoxy)ethoxy)-3-methoxybenzylidene)-2-(2-(5-methylfuran-2-yl)-1H-benzo[d]imidazol-1-yl)acetohydrazide] here?
A: The IC50 was greater than 100 µM.

Q: And the IC50 (HepG2 cell line [1]; [4])?
A: Its IC50 is 107 µM.

Q: And the melting point?
A: The melting point was 203 to 205 °C.

Q: With `Cc1ccc(S(=O)(=O)NC(=O)NNC(=O)Cn2c(C(C)C)nc3ccccc32)cc1` [Compound 24a, 2-(2-(2-Isopropyl-1H-benzo[d]imidazol-1-yl)acetyl)-N-tosylhydrazine-1-carboxamide] as the compound, how does the IC50 (HepG2 cell line [1]; [3]) read?
A: The IC50 was 80.7 µM.

Q: With `COc1ccc(NC(=S)NNC(=O)Cn2c(C(C)C)nc3ccccc32)cc1` [Compound 24b, 2-(2-(2-Isopropyl-1H-benzo[d]imidazol-1-yl)acetyl)-N-(4-methoxyphenyl)hydrazine-1-carbothioamide] as the compound, how does the IC50 (HepG2 cell line [1]; [3]) read?
A: Its IC50 is 15.9 µM.

Q: And the melting point?
A: The melting point was 232 to 234 °C.

Q: For `COc1ccc(NC(=S)NNC(=O)Cn2c(-c3ccc(C)o3)nc3ccccc32)cc1` [Compound 24c, N-(4-Methoxyphenyl)-2-(2-(2-(5-methylfuran-2-yl)-1H-benzo[d]imidazol-1-yl)acetyl)hydrazine-1-carbothioamide], which IC50 (HepG2 cell line [1]; [3]) is on record?
A: The IC50 was 8.73 µM.

Q: And the melting point?
A: Its melting point is 189 to 191 °C.

Q: With `Cc1ccc(-c2nc3ccccc3n2CC(=O)N/N=C/c2ccccc2Cl)o1` [IX] as the compound, how does the IC50 (HepG2 cell line [2]) read?
A: The IC50 was 22.6 µM.

Q: With `CNC(=O)c1cc(Oc2ccc(NC(=O)Nc3ccc(Cl)c(C(F)(F)F)c3)cc2)ccn1` [Sorafenib (I), sorafenib, reference compound] as the compound, how does the IC50 (HepG2 cell line [1]; Homo sapiens, HepG2, 48 h) read?
A: Its IC50 is 11 µM.
